Patent publication US9555039B2, “Piperidine derivatives and compositions for the inhibition of nicotinamide phosphoribosyltransferase (NAMPT)” (Forma TM, LLC., priority 2011, dated 2017)

Biological target: T1, Recombinant His-tagged NAMPT (Homo sapiens, UniProt P43490)
T1 construct: His; host or cells: E. coli
Assay: Biochemical inhibition assay: NAMPT enzymatic reaction, NMN quantified by mass spectrometry
Details: 33 nM NAMPT, 1 μM NAM, 100 μM PRPP, 2.5 mM ATP, 30 minutes at room temperature; read-out: Biochem IC50
Protocol: Biochemical Inhibition Assay
NAMPT Protein Purification
Recombinant His-tagged NAMPT was produced in E. coli cells, purified over a Ni column, and further purified over a size-exclusion column by XTAL Biostructures.
The NAMPT Enzymatic Reaction
The NAMPT enzymatic reactions were carried out in Buffer A (50 mM Hepes pH 7.5, 50 mM NaCl, 5 mM MgCl2, and 1 mM THP) in 96-well V-bottom plates. The compound titrations were performed in a separate dilution plate by serially diluting the compounds in DMSO to make a 100× stock. […] The compound and enzyme mix was incubated for 15 minutes at room temperature, then 10 μL of 10× substrate and co-factors in Buffer A were added to the test well to make a final concentration of 1 μM NAM, 100 μM 5-Phospho-D-ribose 1-diphosphate (PRPP), and 2.5 mM Adenosine 5′-triphosphate (ATP). The reaction was allowed to proceed for 30 minutes at room temperature, then was quenched with the addition of 11 μL of a solution of formic acid and L-Cystathionine to make a final concentration of 1% formic acid and 10 μM L-Cystathionine. Background and signal strength was determined by addition (or non-addition) of a serial dilution of NMN to a pre-quenched enzyme and cofactor mix.
A mass spectrometry-based assay was used to measure the Nampt reaction product (NMN) and the internal control (L-Cystathionine). NMN and L-Cystathionine were detected using the services of Biocius Lifesciences with the RapidFire system. In short, the NMN and L-Cystathionine are bound to a graphitic carbon cartridge in 0.1% formic acid, eluted in 30% acetonitrile buffer, and injected into a Sciex 4000 mass spectrometer. The components of the sample were ionized with electrospray ionization and the positive ions were detected. […] The fragments are quantified and the analyzed by the following method.
First the NMN signal is normalized to the L-Cystathionine signal by dividing the NMN signal by the L-Cystathionine signal for each well. The signal from the background wells are averaged and subtracted from the test plates.
Wherein x denotes the average signal of the compound treated wells and y denotes the average signal of the DMSO treated wells.
IC50s are Determined Using Excel and this Formula.
Wherein X denotes the compound concentration 1, Y denotes the compound concentration 2, XX denotes the % inhibition at compound concentration 1 (X), and YY denotes the % inhibition at compound concentration 2 (Y).

T1 sequence (P43490 whole entry): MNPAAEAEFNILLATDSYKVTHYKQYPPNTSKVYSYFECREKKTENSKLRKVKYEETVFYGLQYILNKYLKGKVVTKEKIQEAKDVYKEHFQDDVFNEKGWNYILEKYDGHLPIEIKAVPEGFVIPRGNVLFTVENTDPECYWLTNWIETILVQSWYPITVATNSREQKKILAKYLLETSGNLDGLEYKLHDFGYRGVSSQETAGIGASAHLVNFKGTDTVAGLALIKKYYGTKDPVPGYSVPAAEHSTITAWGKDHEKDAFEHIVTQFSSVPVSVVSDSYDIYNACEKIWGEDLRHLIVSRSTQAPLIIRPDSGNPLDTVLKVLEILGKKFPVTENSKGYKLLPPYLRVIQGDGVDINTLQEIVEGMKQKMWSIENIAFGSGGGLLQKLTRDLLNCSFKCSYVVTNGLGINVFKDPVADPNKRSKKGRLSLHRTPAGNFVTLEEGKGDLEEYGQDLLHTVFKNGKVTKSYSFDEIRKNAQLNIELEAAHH

| SMILES | IC50 |
| --- | --- |
| O=C(NCCCC1CCN(C(=O)c2ccccc2)CC1)c1cc2cnccc2[nH]1 [N-(3-(1-benzoylpiperidin-4-yl)propyl)-1H-pyrrolo[3,2-c]pyridine-2-carboxamide] | 126 nM |
| O=C(NCCCOC1CCN(C(=O)c2ccccc2F)CC1)c1cc2cnccc2[nH]1 [N-(3-((1-(2-fluorobenzoyl)piperidin-4-yl)oxy)propyl)-1H-pyrrolo[3,2-c]pyridine-2-carboxamide] | 35 nM |
| Cn1cc(CC(=O)N2CCC(CCCCNC(=O)c3cc4cnccc4[nH]3)CC2)c2ccccc21 [N-(4-{1-[2-(1-methyl-1H-indol-3-yl)acetyl]piperidin-4-yl}butyl)-1H-pyrrolo[3,2-c]pyridine-2-carboxamide] | 9.1 nM |
| O=C(NCCCCC1CCN(C(=O)c2cc(F)ccc2F)CC1)c1cc2cnccc2[nH]1 [N-(4-{1-[(2,5-difluorophenyl)carbonyl]piperidin-4-yl}butyl)-1H-pyrrolo[3,2-c]pyridine-2-carboxamide] | 10.3 nM |
| O=C(NCCCCC1CCN(C(=O)c2ccccc2Cl)CC1)c1cc2cnccc2[nH]1 [N-(4-{1-[(2-chlorophenyl)carbonyl]piperidin-4-yl}butyl)-1H-pyrrolo[3,2-c]pyridine-2-carboxamide] | 15.8 nM |
| O=C(NCCCCC1CCN(C(=O)c2ccccc2Cl)CC1)c1ccc2nccn2c1 [N-(4-{1-[(2-chlorophenyl)carbonyl]piperidin-4-yl}butyl)imidazo[1,2-a]pyridine-6-carboxamide] | 5 nM |
| O=C(NCCCCC1CCN(C(=O)c2csc(-c3ccccc3)n2)CC1)c1ccc2nccn2c1 [N-(4-{1-[(2-phenyl-1,3-thiazol-4-yl)carbonyl]piperidin-4-yl}butyl)imidazo[1,2-a]pyridine-6-carboxamide] | 52.3 nM |
| Cc1ccc(C(=O)N2CCC(CCCCNC(=O)c3ccc4nccn4c3)CC2)cc1F [N-(4-{1-[(3-fluoro-4-methylphenyl)carbonyl]piperidin-4-yl}butyl)imidazo[1,2-a]pyridine-6-carboxamide] | 39.4 nM |
| O=C(NCCCCC1CCN(C(=O)c2cc3cc(F)ccc3[nH]2)CC1)c1ccc2nccn2c1 [N-(4-{1-[(5-fluoro-1H-indol-2-yl)carbonyl]piperidin-4-yl}butyl)imidazo[1,2-a]pyridine-6-carboxamide] | 71.3 nM |
| COc1ccc(F)cc1S(=O)(=O)N1CCC(CCCCNC(=O)c2cc3cnccc3[nH]2)CC1 [N-(4-{1-[(5-fluoro-2-methoxybenzene)sulfonyl]piperidin-4-yl}butyl)-1H-pyrrolo[3,2-c]pyridine-2-carboxamide] | 23.2 nM |
| O=C(NCCCCC1CN(C(=O)c2ccccc2)C1)c1cc2cnccc2[nH]1 [N-[4-(1-benzoylazetidin-3-yl)butyl]-1H-pyrrolo[3,2-c]pyridine-2-carboxamide] | 23.2 nM |
| CC(C)c1ncoc1C(=O)N1CCC(CCCCNC(=O)c2cc3ccncc3s2)CC1 [N-[4-(1-{[4-(propan-2-yl)-1,3-oxazol-5-yl]carbonyl}piperidin-4-yl)butyl]thieno[2,3-c]pyridine-2-carboxamide] | 7.4 nM |
| COCc1ccc(C(=O)N2CCC(CCCCNC(=O)c3cc4ccncc4s3)CC2)nc1 [N-[4-(1-{[5-(methoxymethyl)pyridin-2-yl]carbonyl}piperidin-4-yl)butyl]thieno[2,3-c]pyridine-2-carboxamide] | 18.3 nM |
| O=C(NCCCCC1CCN(C(=O)c2ccc(C(F)(F)F)cn2)CC1)c1ccc2nccn2c1 [N-[4-(1-{[5-(trifluoromethyl)pyridin-2-yl]carbonyl}piperidin-4-yl)butyl]imidazo[1,2-a]pyridine-6-carboxamide] | 82.3 nM |
| Cc1oncc1S(=O)(=O)N1CCC(CCCCNC(=O)c2cc3cnccc3[nH]2)CC1 [N-{4-[1-(5-methyl-1,2-oxazole-4-sulfonyl)piperidin-4-yl]butyl}-1H-pyrrolo[3,2-c]pyridine-2-carboxamide] | 36.7 nM |
| O=C(NCCCCC1CCN(C(=O)c2ccc3nccn3c2)CC1)c1ccc2nccn2c1 [N-{4-[1-({imidazo[1,2-a]pyridin-6-yl}carbonyl)piperidin-4-yl]butyl}imidazo[1,2-a]pyridine-6-carboxamide] | 8.5 nM |
| O=C(NCc1ccc(S(=O)(=O)c2ccc(C(=O)N3CCCC3)cc2)cc1)c1cnc2[nH]ncc2c1 [N-{[4-({4-[(pyrrolidin-1-yl)carbonyl]benzene}sulfonyl)phenyl]methyl}-1H-pyrazolo[3,4-b]pyridine-5-carboxamide] | 15.8 nM |
| O=C(NCc1ccc(S(=O)(=O)c2ccc(C(=O)N3CCCC3)cc2)cc1)c1cc2ccncc2s1 [N-{[4-({4-[(pyrrolidin-1-yl)carbonyl]benzene}sulfonyl)phenyl]methyl}thieno[2,3-c]pyridine-2-carboxamide] | 3.7 nM |

Test system: A2780 cells
Assay: In-vitro cell proliferation assay (SRB, 72 hours)
Format: cell-based
Details: Homo sapiens, sulforhodamine B (SRB) assay
Protocol: In-Vitro Cell Proliferation Assay
After overnight incubation at 37° C. and 5% CO2, the compound titrations were performed in a separate dilution plate by serially diluting the compounds in DMSO to make a 1000× stock. The compounds were then further diluted to 10× final concentration in culture media, whereupon 20 μL of each dilution was added to the plated cells with controls (e.g. DMSO and blank) to make a final volume of 200 μL. The final DMSO concentration in each well was 0.1%. The plates were then incubated for 72 hours at 37° C. in a 5% CO2 incubator. The number of viable cells was then assessed using sulforhodamine B (SRB) assay. Cells were fixed at 4° C. for 1 hour with the addition of 50 μL 30% trichloroacetic acid (TCA) to make a final concentration of 6% TCA. The plates were washed four times with H2O and allowed to dry for at least 1 hour, whereupon 100 μL of a 4% SRB in 1% acetic acid solution was added to each well and incubated at room temperature for at least 30 minutes. The plates were then washed three times with 1% acetic acid, dried, and treated with 100 μL of 10 mM Tris-Base solution. The plates were then read in a microplate reader at an absorbance of 570 nm. Background was generated on a separate plate with media only.
Method for Determining % Inhibition
First, the signals from the background plate are averaged, then the background was subtracted from the test plates.
wherein x denotes the average signal of the compound-treated cells and y denotes the average signal of the DMSO-treated cells.
wherein X denotes the compound concentration 1, Y denotes the compound concentration 2, XX denotes the % inhibition at compound concentration 1 (X), and YY denotes the % inhibition at compound concentration 2 (Y).

| SMILES | IC50 |
| --- | --- |
| O=C(NCCCC1CCN(C(=O)c2ccccc2)CC1)c1cc2cnccc2[nH]1 [N-(3-(1-benzoylpiperidin-4-yl)propyl)-1H-pyrrolo[3,2-c]pyridine-2-carboxamide] | 432 nM |
| O=C(NCCCOC1CCN(C(=O)c2ccccc2F)CC1)c1cc2cnccc2[nH]1 [N-(3-((1-(2-fluorobenzoyl)piperidin-4-yl)oxy)propyl)-1H-pyrrolo[3,2-c]pyridine-2-carboxamide] | 177 nM |
| O=C(NCCc1ccc(OCc2ccccc2)cc1)c1cc2cnccc2[nH]1 [N-(4-(benzyloxy)phenethyl)-1H-pyrrolo[3,2-c]pyridine-2-carboxamide] | 2000 nM |
| Cn1cc(CC(=O)N2CCC(CCCCNC(=O)c3cc4cnccc4[nH]3)CC2)c2ccccc21 [N-(4-{1-[2-(1-methyl-1H-indol-3-yl)acetyl]piperidin-4-yl}butyl)-1H-pyrrolo[3,2-c]pyridine-2-carboxamide] | 11.2 nM |
| O=C(NCCCCC1CCN(C(=O)c2cc(F)ccc2F)CC1)c1cc2ccncc2s1 [N-(4-{1-[(2,5-difluorophenyl)carbonyl]piperidin-4-yl}butyl)thieno[2,3-c]pyridine-2-carboxamide] | 1.6 nM |
| Cc1cccc(C(=O)N2CCC(CCCCNC(=O)c3cc4ccncc4s3)CC2)c1F [N-(4-{1-[(2-fluoro-3-methylphenyl)carbonyl]piperidin-4-yl}butyl)thieno[2,3-c]pyridine-2-carboxamide] | 12.6 nM |
| COc1cc(OC)cc(C(=O)N2CCC(CCCCNC(=O)c3ccc4nccn4c3)CC2)c1 [N-(4-{1-[(3,5-dimethoxyphenyl)carbonyl]piperidin-4-yl}butyl)imidazo[1,2-a]pyridine-6-carboxamide] | 2.8 nM |
| O=C(NCCCCC1CCN(C(=O)c2cccc(Cl)c2)CC1)c1cc2cnccc2[nH]1 [N-(4-{1-[(3-chlorophenyl)carbonyl]piperidin-4-yl}butyl)-1H-pyrrolo[3,2-c]pyridine-2-carboxamide] | 11.9 nM |
| COc1cccc(C(=O)N2CCC(CCCCNC(=O)c3cc4cnccc4[nH]3)CC2)c1 [N-(4-{1-[(3-methoxyphenyl)carbonyl]piperidin-4-yl}butyl)-1H-pyrrolo[3,2-c]pyridine-2-carboxamide] | 3.8 nM |
| COc1cccc(C(=O)N2CCC(CCCCNC(=O)c3ccc4nccn4c3)CC2)c1 [N-(4-{1-[(3-methoxyphenyl)carbonyl]piperidin-4-yl}butyl)imidazo[1,2-a]pyridine-6-carboxamide] | 6.6 nM |
| O=C(NCCCCC1CCN(C(=O)c2ccc(F)cc2)CC1)c1cc2cnccc2[nH]1 [N-(4-{1-[(4-fluorophenyl)carbonyl]piperidin-4-yl}butyl)-1H-pyrrolo[3,2-c]pyridine-2-carboxamide] | 14.7 nM |
| COc1ccc(Cl)cc1C(=O)N1CCC(CCCCNC(=O)c2cc3cnccc3[nH]2)CC1 [N-(4-{1-[(5-chloro-2-methoxyphenyl)carbonyl]piperidin-4-yl}butyl)-1H-pyrrolo[3,2-c]pyridine-2-carboxamide] | 3.3 nM |
| O=C(NCCCCC1CCN(C(=O)c2ccc(-n3cccn3)cc2)CC1)c1ccc2nccn2c1 [N-[4-(1-{[4-(1H-pyrazol-1-yl)phenyl]carbonyl}piperidin-4-yl)butyl]imidazo[1,2-a]pyridine-6-carboxamide] | 67.1 nM |
